# Values quoted from earlier work, collected in patent US20090155388A1, “WEIGHT PHYTO-NUTRACEUTICAL SYNERGISTIC COMPOSITION” (priority 2006, published 2009).
# Key:
# [1] = 89 mildly overweight women
# [2] = in vivo
# [3] = test system: FAS (fatty acid synthase)
# [4] = third ventricle (i.c.v.) administration
# [5] = test system: bacterial resistance mechanism (multidrug pump); details: in vitro
# [6] = 10 studies
# [7] = 36 obese patients, maintenance period
# [8] = female mice
# lipoprotein lipase (LPL) = details: vanadate-stimulated
compound,measurement,setting,value
"O=C(O)CC(O)(C(=O)O)C(O)C(=O)O (single isomer, unassigned; (-)) [(−)-Hydroxycitric acid (HCA), (−)-Hydroxycitric acid]",reduction of body weight,[1],significantly greater reduction of body weight
same,"body weight, feed consumption, adverse effects",[2],significant decrease in body weight and reduction in feed consumption without any adverse effects
catechin gallate [(−)-CG],inhibition of FAS,[3],very potent inhibitor of FAS
C/C=C(\C)C(=O)O[C@@H]1C[C@H]2[C@@H](CC=C3C[C@@H](O[C@H]4C[C@H](OC)[C@H](O[C@H]5C[C@H](OC)[C@H](O[C@@H]6O[C@H](C)[C@@H](O)[C@H](OC)[C@H]6O)[C@@H](C)O5)[C@@H](C)O4)CC[C@@]32C)[C@@]2(O)CC[C@H](C(C)=O)[C@@]12C [P57AS3],increase of ATP content,hypothalamic neurons,50-150%
same,reduction of subsequent 24-h food intake,[4],40-60%
"COc1cc([C@H]2Oc3cc(-c4cc(=O)c5c(O)cc(O)cc5o4)cc(OC)c3O[C@@H]2CO)ccc1O (racemic) [5′-methoxyhydnocarpin (5′-MHC), 5′-methoxyhydnocarpin]",potentiation of activity of berberine alkaloids,[5],strongly potentiated
Chromium picolinate,effect on reducing body weight compared with placebo,[6],relatively small effect
same,lean body mass,[7],able to increase lean body mass
same,insulin sensitivity,"37 patients, with sulfonylurea agents",significantly improves insulin sensitivity
same,body weight gain and visceral fat accumulation,compared with placebo,significantly attenuated body weight gain and visceral fat accumulation
CNCCC(Oc1ccc(C(F)(F)F)cc1)c1ccccc1 (stereo not drawn) [fluoxetine],"hyperphagic effect of 5-HT depletor, 5-HT1A agonist, 5-HT antagonist and glucose antimetabolite",[8],significantly antagonized
"C[C@@H]1O[C@@H](O[C@H]2C(=O)c3c(O)cc(O)cc3O[C@@H]2c2ccc(O)c(O)c2)[C@H](O)[C@H](O)[C@H]1O [Astilbin, astilbin]",release of LPL activity,lipoprotein lipase (LPL),enhanced the release of lipoprotein lipase (LPL) activity
